Test [1] deals with T1, hFPR2 (Homo sapiens, UniProt P25090).
T1 construct: expressed in transfected cells
T1 sequence (P25090 1-351): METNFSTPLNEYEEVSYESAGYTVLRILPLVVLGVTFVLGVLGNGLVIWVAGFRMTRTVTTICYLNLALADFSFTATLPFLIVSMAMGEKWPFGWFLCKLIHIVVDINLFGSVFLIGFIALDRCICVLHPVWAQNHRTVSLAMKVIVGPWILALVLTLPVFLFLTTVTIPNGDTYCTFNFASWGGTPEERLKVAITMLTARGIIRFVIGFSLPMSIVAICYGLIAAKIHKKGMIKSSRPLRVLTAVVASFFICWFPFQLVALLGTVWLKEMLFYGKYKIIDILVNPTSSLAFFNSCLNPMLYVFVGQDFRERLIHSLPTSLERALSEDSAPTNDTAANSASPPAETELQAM
Nature of the test: Akt (Thr308) phosphorylation in hFPR2-FlpIn-CHO cells. It is filed as cell-based. The conditions noted are these: for ΔLog(τ/KA), Akt 1/2/3 (Thr308) phosphorylation, hFPR2-Flpln-CHO: normalized transduction coefficient, reference agonist Cmpd43; for Log(τ/KA), Akt 1/2/3 (Thr308) phosphorylation, hFPR2-Flpln-CHO: transduction coefficient. From the text:
(§1) cDNDA construct and generation of stable cell lines: cDNA in pcDNA3.1^+ encoding the human formyl peptide receptors (FPR) subtypes, hFPR1, hFPR2 and hFPR3 was obtained from Invitrogen. The sequences for 3 hFPR receptors were amplified by PCR and cloned into the Gateway entry vector, pDONR202™, using the BP clonase enzyme mix, according to the manufactures' instructions (Invitrogen Inc, Carlsbad, Calif., USA). All hFPR receptors constructs in pDONR201™ were subsequently transfected into the pEF5/FRT/V5/dest vector using the LR clonase enzyme mix (Invitrogen). Receptor constructs (pEF5/FRT/V5/dest) were used to transfect FIp-In CHO cells as described previously (Valant C et al., PNAS, 2014). Cells were selected using 500 μg/mL hydromycin to generate cell lines stably expressing each receptor construct. Cells were maintained and cultured in high glucose DMEM supplemented with 10% FBS, 16 mM HEPES and 500 μg/mL hydromycin at 37° C. under a humidified atmosphere containing 5% CO2.
(§2) In the various assays described below, cells were plated into 96-well transparent cell culture plates at 4×10^4 cells per well, cultured overnight in serum-free media at 37° C. in 5% CO2.
Measurement of Akt1/2/3 phosphorylation and Akt 1: The same lysate was used for measurement of Akt1/2/3 phosphorylation (Ser473) and Akt1 (Thr308). Cells were lysed in SureFire lysis buffer and transferred to 384-well opaque proxiplates. Under low-light conditions, a 1:10:40 (v:v:v) dilution of AlphaScreen acceptor beads:Surefire activation buffer:Surefire reaction buffer was prepared and the plate was incubated in the dark at RT for 2 h. Then, a 1:20 (v:v) dilution of AlphaScreen donor beads/dilution was prepared and incubated in the dark at RT for another 2 h, before the fluorescence signal was measured by used of a Fusion-α plate reader (PerkinElmer Life and Analytical Sciences) with standard AlphaScreen settings. Receptor mediated phosphorylation of Akt1/2/3 (Ser473) and Akt1 (Thr308) were determined using the AlphaScreen™ […] SureFire™ kit, as per as per manufacturer's instructions. Data were normalized to the maximal response elicited by 10% (v:v) FBS at the same time point.
(§3) Data analysis: All data were analysed using GraphPad Prism 6.0 (GraphPad Software, San Deigo, Calif., USA). Where appropriate, concentration-response curves were fitted to derive the maximal agonist effect (Emax), and the ligand potency estimate (pEC50), where Emax is the maximal possible response of the system (not the agonist), basal is the basal level of response in the absence of agonist, and pEC50 is the negative logarithm of the agonist concentration that gives a response halfway between Emax and basal.
(§4) In the present study, FIp-IN CHO cells and Gateway plasmid were obtained from Invitrogen Inc (Carlsbad, Calif., USA). The sequences for all 3 known human FPRs (hFPR1, hFPR2 and hFPR3) were amplified by PCR and cloned into the Gateway entry vector, pDONR202TM, using the BP clonase enzyme mix, according to the manufacturers' instructions. The hFPR pDONR201TM constructs were subsequently transfected into the pEF5/FRT/V5/dest vector using the LR clonase enzyme mix (Invitrogen). Receptor constructs (pEF5/FRT/V5/dest) were used to transfect FIp-IN CHO cells, as described previously (Valant et al. 2014). Cells were selected using 500 μg/mL hydromycin to generate cell lines stably expressing each human receptor construct. Cells were maintained and cultured in high glucose Dulbecco's modified eagle medium (DMEM) supplemented with 10% fetal bovine serum (FBS, from JRH Biosciences, Lenexa, Kans., USA) and 500 μg/mL hydromycin B (Invitrogen Inc) at 37° C. under a humidified atmosphere containing 5% CO2. Cell were plated into 96-well transparent cell culture plates at 4×10^4 cells per well, cultured overnight in serum-free media at 37° C. in 5% CO2.

Test [2] has as its target T1, hFPR2. Briefly: Inhibition of forskolin-stimulated cAMP accumulation in hFPR2-FlpIn-CHO cells. In kind it is cell-based. The conditions noted are these: for ΔLog(τ/KA), inhibition of cAMP accumulation, hFPR2-Flpln-CHO: normalized transduction coefficient, reference agonist Cmpd43; for Log(τ/KA), inhibition of cAMP accumulation, hFPR2-Flpln-CHO: transduction coefficient; for Effect on the cAMP response at hFPR2: over the concentration range tested.
From the text: as §1, §2
cAMP Accumulation: CHO-hFPR1, -hFPR2 and -hFPR3 stable transfected cells were plated into 96-well plates and cultured overnight at 37° C. in 5% CO2. Cells were washed with PBS, and cultured overnight. […] Cells were lysed in detection buffer (dH2O, 0.3% Tween 20, 5 mM HEPES, 0.1% BSA). Lysates were transferred to a 384-well plate and mixtures of detection buffer/donor bead-conjugated anti-cAMP antibody and detection buffer: biotinylated cAMP: acceptor bead-conjugated streptavidin were added to the lysates according to the PerkinElmer cAMP Alphascreen protocol. Under low-light conditions, a 1:50 (v:v) dilution of AlphaScreen acceptor beads: stimulation buffer was prepared, 1:150 (v:v) dilution of donor beads and 50 nM biotinylated cAMP in detection buffer was prepared in a 384-well opaque optiplates. Plates were incubated in the dark at room temperature overnight before the fluorescence signal was measured by use of a Fusion-α plate reader (PerkinElmer Life and Analytical Sciences). Data were normalized to the response elicited by 10 μM forskolin at the same time point.
as §3, §4

Setting [3] is: Table 3, percentage of Akt1/2/3 phosphorylation elicited by 10% FBS, read-out: Emax (%), Akt 1 (Thr308) phosphorylation, hFPR2-Flpln-CHO.
Setting [4] is: Table 8, percent of response elicited by 10% FBS, read-out: Emax, Akt 1/2/3 (Thr308) phosphorylation, hFPR2-Flpln-CHO.
Setting [5] is: Table 4, percentage inhibition of forskolin-stimulated cAMP accumulation, read-out: Emax (%), inhibition to cAMP accumulation, hFPR2-Flpln-CHO.
The mark [6] stands for this setting: Table 8, percent inhibition of forskolin-induced cAMP accumulation, read-out: Emax, inhibition of cAMP accumulation, hFPR2-Flpln-CHO.

On to `CSCC[C@H](NC=O)C(=O)N[C@@H](CC(C)C)C(=O)N[C@@H](Cc1ccccc1)C(=O)O` [fMLP, N-formyl-Met-Leu-Phe], for which the Emax amounted to 7 ± 2% on hFPR2 [1] (setting [3]), 21 ± 2% on hFPR2 [1] (setting [4]), 10 ± 8% on hFPR2 [2] (setting [5]) and 10 ± 8% at hFPR2 [2] (setting [6]). In addition, at hFPR2 [1] (Table 8), the “ΔLog(τ/KA), Akt 1/2/3 (Thr308) phosphorylation, hFPR2-Flpln-CHO” value was −2.1 ± 0.3. Further, at hFPR2 [1] (Table 8), the “Log(τ/KA), Akt 1/2/3 (Thr308) phosphorylation, hFPR2-Flpln-CHO” value came to 4.8 ± 0.1. In addition, the “ΔLog(τ/KA), inhibition of cAMP accumulation, hFPR2-Flpln-CHO” value at hFPR2 [2] (Table 8) is given as −1.6 ± 0.2. For the same compound, at hFPR2 [2] (Table 8), the “Log(τ/KA), inhibition of cAMP accumulation, hFPR2-Flpln-CHO” value was 4.9 ± 0.1. The “Effect on the cAMP response at hFPR2” value at hFPR2 [2] is listed as “caused an inhibition of the cAMP response”.
For the compound `CC(C)C1C(NC(=O)Nc2ccc(Cl)cc2)C(=O)N(c2ccccc2)N1C` (stereo not shown) [BIDI-002], the Emax at hFPR2 [1] (setting [3]) turned out to be 27 ± 2%; at hFPR2 [1] (setting [4]), 27 ± 2%; on hFPR2 [2] (setting [5]), 66 ± 6%; on hFPR2 [2] (setting [6]) it was 66 ± 6%. Also, the EC50 is 138 nM at hFPR2 [1] (Table 3, read-out: pEC50, Akt 1 (Thr308) phosphorylation, hFPR2-Flpln-CHO (converted)); 126 nM at hFPR2 [1] (Table 8, read-out: pEC50, Akt 1/2/3 (Thr308) phosphorylation, hFPR2-Flpln-CHO (converted)); 170 nM on hFPR2 [2] (Table 4, read-out: pEC50, inhibition to cAMP accumulation, hFPR2-Flpln-CHO (converted)); 251 nM on hFPR2 [2] (Table 8, read-out: pEC50, inhibition of cAMP accumulation, hFPR2-Flpln-CHO (converted)). The “ΔLog(τ/KA), Akt 1/2/3 (Thr308) phosphorylation, hFPR2-Flpln-CHO” value on hFPR2 [1] (Table 8) came to 0.0. For the same compound, the “Log(τ/KA), Akt 1/2/3 (Thr308) phosphorylation, hFPR2-Flpln-CHO” value at hFPR2 [1] (Table 8) came to 7.0 ± 0.2. Besides, the “ΔLog(τ/KA), inhibition of cAMP accumulation, hFPR2-Flpln-CHO” value on hFPR2 [2] (Table 8) was found to be 0.0. Besides, the “Log(τ/KA), inhibition of cAMP accumulation, hFPR2-Flpln-CHO” value at hFPR2 [2] (Table 8) is reported as 6.5 ± 0.1. Moreover, at hFPR2 [2], the “Effect on the cAMP response at hFPR2” value is given as “caused an inhibition of the cAMP response”.

Values taken from patent US10328075B2, “Method of treatment and compounds for use therein” (Baker Heart and Diabetes Institute, priority 2015, dated 2019).
